Results taken from patent US7968601B2, “Adamantyl acetamides as 11-β hydroxysteroid dehydrogenase inhibitors” (Janssen Pharmaceutica N.V., priority 2002, dated 2011).
pIC50: −log10 of the molar value. Counter-ions that a name gives are not always drawn.

Tests used:
11b-HSD1 [1] = biological target: T1, 11b-HSD1 (Mus musculus, UniProt P50172); assay: Cellular assay, 11b-HSD1 activity in differentiated 3T3-L1 cells; format: cell-based; settings: 4 hour pre-incubation, pIC50 scored 1-3, read-out: [C2] HSD1 cellular 3T3-L1 Score
T1 construct: endogenous in cells; host or cells: 3T3-L1 (ATCC-CL-173), differentiated into adipocytes
T1 sequence (P50172 whole entry): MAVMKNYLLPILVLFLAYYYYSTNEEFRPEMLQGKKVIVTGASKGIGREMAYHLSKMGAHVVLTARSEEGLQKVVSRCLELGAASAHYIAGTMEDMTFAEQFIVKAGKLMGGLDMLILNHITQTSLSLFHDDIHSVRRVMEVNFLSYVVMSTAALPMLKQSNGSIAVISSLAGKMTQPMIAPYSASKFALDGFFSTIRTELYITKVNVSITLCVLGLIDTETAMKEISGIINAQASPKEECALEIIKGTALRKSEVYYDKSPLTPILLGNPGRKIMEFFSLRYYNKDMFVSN
Method: The effects on 11b-HSD1 activity was measured in differentiated 3T3-L1 cells and rat hepatocytes.
Mouse fibroblast 3T3-L1 cells (ATCC-CL-173) were seeded at a density of 16500 cells/ml in 12 well plates and grown for 7 days in DMEM medium (supplemented with 10% heat inactivated foetal calf serum, 2 mM glutamine and 25 mg gentamycin) at 37 C in a humidified 5% CO2 atmosphere. Medium was refreshed twice a week. Fibroblasts were differentiated into adipocytes at 37 C in a 5% CO2 humidified atmosphere in growth medium containing 2 μg/ml insulin, 55 μg/ml IBMX and 39.2 μg/ml dexamethasone.
Following a 4 hour pre-incubation with test compound, 0.5 μCi ^3H-cortisone or dehydrocorticosterone, was added to the cultures. One hour later, the medium was extracted on Extrelut^3-columns with 15 ml diethyl ether and the extract was analysed by HPLC as described above.
(§1) As for the enzymatic assays, the compounds to be tested were taken from a stock solution and tested at a final concentration ranging from […] to 3.10^−9M. From the thus obtained dose response curves, the pIC50 value was calculated and scored as follows; Score 1=pIC50 value<5, Score 2=pIC50 value in the range of 5 to 6, Score 3=pIC50 value>6. (in this table NT stands for Not Tested).

11b-HSD2 [2] = biological target: T2, 11b-HSD2 (Homo sapiens, UniProt P80365); assay: Enzymatic assay, 11b-HSD2 dependent dehydrogenase activity; format: biochemical; settings: 11b-HSD2 dehydrogenase activity, pIC50 scored 1-3, read-out: [C1] HSD2 prot Dehydro Score
T2 sequence (P80365 1-405): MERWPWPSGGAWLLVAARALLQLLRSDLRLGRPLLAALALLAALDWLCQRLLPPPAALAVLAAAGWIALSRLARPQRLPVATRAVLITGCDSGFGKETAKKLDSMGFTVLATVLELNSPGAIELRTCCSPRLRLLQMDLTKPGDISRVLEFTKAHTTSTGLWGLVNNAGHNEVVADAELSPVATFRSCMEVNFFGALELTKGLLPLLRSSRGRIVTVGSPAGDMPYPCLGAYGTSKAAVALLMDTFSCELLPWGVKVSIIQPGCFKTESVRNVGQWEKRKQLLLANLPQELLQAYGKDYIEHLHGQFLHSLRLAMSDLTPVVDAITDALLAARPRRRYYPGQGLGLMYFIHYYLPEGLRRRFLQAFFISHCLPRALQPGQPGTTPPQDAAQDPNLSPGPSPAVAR
Method: The effects on the 11b-HSD2 dependent dehydrogenase activity was studied in a reaction mixture containing 0.1M sodium phosphate buffer pH 7.5, 300 μM NAD, 100 nM cortisol (of which 2 nM is 3H-radio labelled), 1 μl drug and/or solvent and 2.5 μg recombinant protein in a final volume of 100 μl.
(§2) All incubations were performed for 45 min at 37 C in a water bath. The reaction was stopped by adding 100 μl acetonitrile containing 20 μg corticosterone as internal standard. After centrifugation, the product formation was analysed in the supernatant by HPLC on a Hypersyl BDS-C18 column using 0.05 mM ammonium acetate/methanol (50/50) as solvent. In all of the aforementioned assays, the drugs to be tested were taken from a stock solution and tested at a final concentration ranging from […] to 3.10^−9M. From the thus obtained dose response curves, the pIC50 value was calculated and scored as follows; Score 1=pIC50 value<5, Score 2=pIC50 value in the range of 5 to 6, Score 3=pIC50 value>6. (in this table NT stands for Not Tested).

11b-HSD1 [3] = biological target: 11b-HSD1 (Homo sapiens, UniProt P28845); assay: Enzymatic assay, 11b-HSD1 reductase activity (conversion of cortisone into cortisol); format: biochemical; settings: pIC50 scored 1-3, read-out: [C1] HSD1-prot Reduct Score
Chain of 11b-HSD1 (Homo sapiens, UniProt P28845) (P28845 whole entry): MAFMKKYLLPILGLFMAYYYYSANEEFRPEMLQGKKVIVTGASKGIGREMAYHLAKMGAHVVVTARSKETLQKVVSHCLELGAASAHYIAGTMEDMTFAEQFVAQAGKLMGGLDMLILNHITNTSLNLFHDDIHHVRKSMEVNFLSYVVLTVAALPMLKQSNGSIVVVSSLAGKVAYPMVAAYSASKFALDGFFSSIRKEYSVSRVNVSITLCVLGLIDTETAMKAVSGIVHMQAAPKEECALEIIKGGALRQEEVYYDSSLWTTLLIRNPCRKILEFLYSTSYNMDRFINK
Method: The effects of compounds on 11b-HSD1 dependent conversion of cortisone into cortisol (reductase activity) was studied in a reaction mixture containing 30 mM Tris-HCl buffer pH 7.2, 180 μM NADPH, 1 mM EDTA, 2 μM cortisone, 1 μl drug and/or solvent and 11 μg recombinant protein in a final volume of 100 μl.
as §2

11b-HSD2 [4] = biological target: T2, 11b-HSD2; assay: Cellular assay, 11b-HSD2 activity in HepG2 cells; format: cell-based; design: endogenous in cells; host or cells: HepG2 (ATCC HB-8065); settings: 4 hour pre-incubation, pIC50 scored 1-3, read-out: [C2] HSD2 cellular HepG2 Score
Method: The effects on 11b-HSD2 activity was studied in HepG2 and LCC-PK1-cells HepG2-cells (ATCC HB-8065) were seeded in 12 well plates at a density of 100,000 cells/ml and grown at 37 C in a humidified 5% CO2 atmosphere in MEM-Rega-3 medium supplemented with 10% heat inactivated foetal calf serum, 2 mM L-glutamine and sodium bicarbonate). Medium was refreshed twice a week. Pig kidney cells (LCC-PK1, ATCC CRL-1392) were seeded at a density of 150,000 cells/ml in 12 well plates and grown at 37 C in a humidified 5% CO2 atmosphere in Medium 199 supplemented with Earls modified salt solution, 100 U/ml penicillin, 100 μg/ml streptomycin and 10% foetal calf serum. Medium was refreshed twice a week. Twenty four hours prior to the onset of the experiment, medium was changed by medium containing 10% charcoal stripped foetal calf serum.
Following a 4 hour pre-incubation with test compound, 0.5 μCi ^3H-cortisol or corticosterone, was added to the cultures. One hour later, the medium was extracted on Extrelut^3-columns with 15 ml diethyl ether and the extract was analysed by HPLC as described above.
as §1

| melting point | pIC50 (11b-HSD1 [1]) | pIC50 (11b-HSD2 [2]) | pIC50 (11b-HSD1 [3]) | pIC50 (11b-HSD2 [4]) | Compound |
| --- | --- | --- | --- | --- | --- |
| 182 to 184 °C |  |  |  |  | O=C(N[C@H]1[C@@H]2CC3C[C@H]1C[C@](F)(C3)C2)N1CCCc2ccccc21 [Compound 226] |
| 115 to 117 °C |  |  |  |  | Cc1cccc(C(C)(C)C(=O)N[C@H]2[C@@H]3CC4C[C@H]2C[C@](F)(C4)C3)c1 [Compound 187] |
| 165 to 167 °C |  |  |  |  | COc1cccc(C(C)(C)C(=O)N[C@@H]2[C@@H]3CC4C[C@H]2C[C@](O)(C4)C3)c1 [Compound 155] |
| 110 to 112 °C |  |  |  |  | COc1cccc(C(C)(C)C(=O)N[C@@H]2[C@@H]3CC4C[C@H]2C[C@](F)(C4)C3)c1 [Compound 188] |
| 163 to 165 °C |  |  |  |  | O=C(NC1C2CC3CC(C2)CC1C3)N1CCCc2ccccc21 (stereo not shown) [Compound 200] |
| 208 to 210 °C |  |  |  |  | CC(C)(C(=O)N[C@H]1[C@@H]2CC3C[C@H]1C[C@](F)(C3)C2)c1cccc(OCCN2CCOCC2)c1 (as salt: HCl) [Compound 228] |
| 165 to 170 °C |  |  |  |  | CN1CCN(CCOc2cccc(C(C)(C)C(=O)NC3C4CC5CC(C4)CC3C5)c2)CC1 (stereo not shown) [Compound 199] |
| 210 to 215 °C |  |  |  |  | CC(C)(C(=O)N[C@H]1[C@@H]2CC3C[C@H]1C[C@](F)(C3)C2)c1cccc(OCC(=O)O)c1 [Compound 227] |
| 170 to 172 °C |  |  |  |  | O=C(N[C@H]1[C@@H]2CC3C[C@H]1C[C@](O)(C3)C2)N1CCCc2ccccc21 [Compound 218] |
| 145 to 147 °C |  |  |  |  | O=C(NC1C2CC3CC(C2)CC1C3)N1CCc2ccccc2C1 (stereo not shown) [Compound 201] |
| 155 to 160 °C |  |  |  |  | CC(C)(C(=O)N[C@H]1[C@@H]2CC3C[C@H]1C[C@](O)(C3)C2)c1cccc(OCCN2CCOCC2)c1 (as salt: HCl) [Compound 158] |
|  | > 6.00 | < 5.00 | < 5.00 | < 5.00 | CC(C)(C(=O)NC1C2CC3CC(C2)CC1C3)c1cccc(C(F)(F)F)c1 (stereo not shown) [Compound 85] |
|  | > 6.00 | < 5.00 | < 5.00 | < 5.00 | CC(C)(C(=O)NC1C2CC3CC(C2)CC1C3)c1ccc(F)cc1F (stereo not shown) [Compound 87] |
| 215 to 220 °C |  |  |  |  | O=C(O)COc1cccc2c1CCN(C(=O)NC1C3CC4CC(C3)CC1C4)C2 (stereo not shown) [Compound 257] |
|  | > 6.00 | < 5.00 | > 6.00 | < 5.00 | COc1cccc2c1OCC=C2C(=O)NC1C2CC3CC(C2)CC1C3 (stereo not shown) [Compound 171] |
|  | > 6.00 | < 5.00 | < 5.00 | < 5.00 | CC(C)(C(=O)NC1C2CC3CC(C2)CC1C3)c1cccc(F)c1 (stereo not shown) [Compound 84] |

| melting point | pIC50 (11b-HSD1 [1]) | pIC50 (11b-HSD2 [2]) | pIC50 (11b-HSD1 [3]) | pIC50 (11b-HSD2 [4]) | Compound |
| --- | --- | --- | --- | --- | --- |
|  | > 6.00 | < 5.00 | < 5.00 | < 5.00 | Cc1cc(C)c2c(c1)C(C(=O)NC1C3CC4CC(C3)CC1C4)=CCC2 (stereo not shown) [Compound 181] |
|  | > 6.00 | < 5.00 | 5.00 to 6.00 | < 5.00 | CC(=Cc1ccccc1)C(=O)NC1C2CC3CC(C2)CC1C3 (stereo not shown) [Compound 151] |
|  | > 6.00 | < 5.00 | < 5.00 | < 5.00 | CCCOc1cccc(C(C)(C)C(=O)NC2C3CC4CC(C3)CC2C4)c1 (stereo not shown) [Compound 53] |
| 105 to 107 °C |  |  |  |  | COc1cccc(C(C)(C)C(=O)N[C@H]2[C@@H]3CC4C[C@H]2C[C@](F)(C4)C3)c1 [Compound 189] |
| 185 to 188 °C |  |  |  |  | O=C(N[C@@H]1[C@@H]2CC3C[C@H]1C[C@](O)(C3)C2)N1CCCc2ccccc21 [Compound 219] |
|  | > 6.00 | < 5.00 | < 5.00 | < 5.00 | CC(C)(C(=O)NC1C2CCCC1CCC2)c1ccccc1 (stereo not shown) [Compound 48] |
|  | > 6.00 | 5.00 to 6.00 | > 6.00 | < 5.00 | CN(C)c1cccc(C(C)(C)C(=O)NC2C3CC4CC(C3)CC2C4)c1 (stereo not shown) [Compound 78] |
|  | 5.00 to 6.00 | < 5.00 | < 5.00 | < 5.00 | NC(C(=O)NC1C2CC3CC(C2)CC1C3)c1ccccc1 (stereo not shown) [Compound 50] |
|  | > 6.00 | < 5.00 | > 6.00 | < 5.00 | COc1ccc(C(C)(C)C(=O)NC2C3CC4CC(C3)CC2C4)cc1 (stereo not shown) [Compound 47] |
|  | > 6.00 | < 5.00 | < 5.00 | < 5.00 | Cc1cc(CCC(=O)O)cc(C(C)(C)C(=O)N[C@H]2[C@@H]3CC4C[C@H]2C[C@](F)(C4)C3)c1 [Compound 254] |
|  | > 6.00 | < 5.00 | 5.00 to 6.00 | < 5.00 | CC(=CC(=O)NC1C2CC3CC(C2)CC1C3)c1ccccc1 (stereo not shown) [Compound 153] |
|  | > 6.00 | < 5.00 | < 5.00 | < 5.00 | CC(C)(C(=O)NC1C2CC3CC(C2)CC1C3)c1cccc(/C=C/C(=O)OCc2ccccc2)c1 (stereo not shown) [Compound 198] |
|  | > 6.00 | < 5.00 | 5.00 to 6.00 | < 5.00 | CC(C)(C(=O)NC1C2CC3CC(C2)CC1C3)c1ccc(OCC(=O)O)cc1 (stereo not shown) [Compound 72] |
|  | > 6.00 | < 5.00 | > 6.00 | < 5.00 | O=C(NC1C2CC3CC(C2)CC1C3)C1=CCOc2ccccc21 (stereo not shown) [Compound 162] |
|  | > 6.00 | < 5.00 | > 6.00 | < 5.00 | CC(C)(C(=O)NC1C2CC3CC(C2)CC1C3)c1cccc(CCC(=O)O)c1 (stereo not shown) [Compound 196] |
